Data on 3 compounds can be found in patent US8124654B2, “Derivatives of hypoestoxide and related compounds” (Immune Modulation, Inc., priority 2008, dated 2012).

Test [1] has as its system P. berghei berghei (EI strain). The test can be described thus: In vivo effect in malaria-infected mice (blood parasitemia). The note with it: female mice, 5 mg/Kg oral once daily for 3 days; Giemsa-stained blood smears. As to the method:
Five female mice per group were infected i.p. with 1×10^5P. berghei berghei (EI strain) parasitized RBCs and 3 days later, oral therapy was started at 5 mg/Kg once daily with either Formula IV or Chloroquine for 3 days. […], blood parasitemia was evaluated on each mouse on Giemsa-stained smears.

The test system of another test is IL-1β production. As to the kind of experiment: Inhibition of IL-1β production. The format is cell-based.
Another test relates to IL-6 production. As to the kind of experiment: IL-6 production in LPS-stimulated human peripheral blood macrophages (ELISA). In kind it is cell-based. An excerpt:
At the end of 24-hour culture, supernatants were removed and tested for the presence of IL-6 by enzymne-linked immunosorbent assay.

The next test has as its system B16F1 melanocytes. As to the kind of experiment: Inhibition of lung colonization of B16F1 melanocytes in mice. The format is in vivo, C57BL/6 Mice. The settings on record: 5 mg/Kg oral once daily for 10 days; lungs counted on day 16; versus vehicle control. As to the method:
1×10^5 melanoma cells were injected intravenously into the lateral tail vein of each of 30 mice. Before treatment, mice were randomized into six groups of 5 mice per group. Treatment began one hour after intravenous inoculation of the tumor cells. Drugs, at 5 mg/Kg were administered via oral route, once daily for 10 days. Treatment was stopped on day 10. On day 16, lungs were removed and fixed in 10% formaldehyde. The surface melanoma colonies were counted for each lung and the means were established for each group. The mean for each group was used to calculate % inhibition based on the vehicle control.

Test [2] relates to P. falciparum CQ-Sensitive (3D7). The test can be described thus: In vitro malaria parasite development, 3H-hypoxanthine uptake, CQ-sensitive strain. In kind it is cell-based. The note with it: for IC50: 48 h exposure from ring stage, 3H-hypoxanthine uptake, geometric mean. As to the method:
(§1) Parasite cultures were exposed to different concentrations of Formula IV or hypoestoxide (from 100× stocks in DMSO) for 48 h, beginning at the ring stage. Concentrations yielding 50% inhibition (IC50) were extrapolated from plots of mean percent negative control activity over inhibitor concentration as measured by the uptake of ^3H-hypoxanthine. Data was analyzed after logarithmic transformation and expressed as the geometric mean IC50 and 95% confidence intervals.
(§2) Other anti-parasitic agents such as sesquiterpene artemisinin, chloroquine, mixtures thereof, and the like, can also be administered in appropriate doses along with the compounds of formula I-IV.

Another test deals with IL-12 production. The test can be described thus: Inhibition of IL-12 production. In kind it is cell-based.
The subject of test [3] is P. falciparum CQ-Resistant (W2 MR4). As to the kind of experiment: In vitro malaria parasite development, 3H-hypoxanthine uptake, CQ-resistant strain. The note with it: for IC50: 48 h exposure from ring stage, 3H-hypoxanthine uptake, geometric mean. In kind it is cell-based. As to the method:
as §1, §2

The next test deals with TNF-α production. The test can be described thus: Inhibition of TNF-α production. In kind it is cell-based.
Setting [4] is: ratio of IC50 versus hypoestoxide.

With `CCN(CC)CCCC(C)Nc1ccnc2cc(Cl)ccc12` (stereo not shown) [Chloroquine], the “Reduction of Parasitemia (%)” value in test [1] is on record as 96%.

With `C=C1C(=O)C[C@H]2C[C@@H]3O[C@@]3(C)CC[C@@H]3O[C@@]3(C)C[C@@H](OC(C)=O)[C@H]1C2(C)C` [Hypoestoxide, hypoestoxide], the “inhibition of IL-1β production (in words)” value in the test with IL-1β production was “inhibits”. In addition, the “Inhibition (%) of IL-6 production” value in the test on IL-6 production (10 μM, LPS 3 μg/ml, 24 h) was 96%. Besides, the “IL-6” value in the test on IL-6 production (10 μM, LPS 3 μg/ml, 24 h culture supernatant, LPS alone 1200 pg/ml) was 50 pg/mL. Moreover, the “inhibition of IL-6 (in words)” value with IL-6 production (statement of the summary, no conditions given) was “inhibits”. In addition, in the test with B16F1 melanocytes, the “Inhibition (%) of lung melanoma colonies” value came out at 70%. For the same compound, the IC50 – broadly, the point on the concentration scale where inhibition reaches its midpoint – turned out to be 10 µM in test [2] and 10.6 µM in test [3]. Also, the “inhibition of IL-12 production (in words)” value with IL-12 production was “inhibits”. The “inhibition of TNF-α production (in words)” value in the test on TNF-α production was “inhibits”.

Consider 12,18-dihydrohypoestoxide [Formula IV], for which the “Reduction of Parasitemia (%)” value in test [1] worked out at 92%. In addition, in the test on B16F1 melanocytes, the “Inhibition (%) of lung melanoma colonies” value was 65%. Also, the concentration for half-maximal inhibition (IC50) in test [2] is 1.4 µM; in test [3] it was 0.12 µM. Also, the “times more active than hypoestoxide against the CQ-sensitive strain” value in test [2] (setting [4]) is on record as “about 7 times”. In test [3] (setting [4]), the “times more active than the parent hypoestoxide against the CQ-resistant strain” value was 88 times.
